Results as given in patent US6891057B2, “Compounds for generating chemiluminescence with a peroxidase” (Lumigen, Inc., priority 1997, dated 2005).

Biological target: T1, horseradish peroxidase (HRP) (Armoracia rusticana, UniProt P00433)
T1 sequence (P00433 31-338 limits assumed): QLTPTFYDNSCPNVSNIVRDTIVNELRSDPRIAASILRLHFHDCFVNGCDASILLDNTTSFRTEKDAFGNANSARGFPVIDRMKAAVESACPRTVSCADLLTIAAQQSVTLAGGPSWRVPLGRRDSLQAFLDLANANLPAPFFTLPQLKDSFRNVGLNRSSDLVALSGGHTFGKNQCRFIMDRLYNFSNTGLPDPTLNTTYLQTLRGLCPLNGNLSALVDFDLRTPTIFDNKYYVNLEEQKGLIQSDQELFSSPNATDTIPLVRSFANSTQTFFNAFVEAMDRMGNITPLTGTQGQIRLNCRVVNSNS
Experiment: Chemiluminescent detection of HRP: reaction of compound with peroxidase and peroxide
Assay type: biochemical
Details: for time to maximum chemiluminescence intensity: 0.01 M tris pH 8.0, 0.5 mM urea peroxide, 0.1 mM p-phenylphenol, 1 mM EDTA, 0.025% Tween 20, 5×10^−5 M acridan, HRP 3.5×10^−16 to 1.4×10^−15 moles
Procedure: FIG. 1 is a graph relating the amount of HRP to the chemiluminescence intensity at 15 min emitted by 100 μL of a reagent described in Example 20 containing acridan phosphate 5 triggered at room temperature. Chemiluminescence emission was initiated by addition of 10 μL of solutions of HRP containing between 1.4×10^−15 and 1.4×10^−19 moles of enzyme to 100 μL of the reagent comprising 0.055 M tris buffer, pH 8.6, 0.25 mM urea peroxide, 0.05 mM p-phenylphenol, 0.5 mM EDTA, 0.0125% Tween 20 and 3.3×10^−4 M acridan 5 in the wells of a black microplate. The term S-B refers to the chemiluminescence signal (S) in Relative Light Units (RLU) in the presence of HRP corrected for background chemiluminescence (B) in the absence of HRP.
FIG. 2 is a graph relating the amount of HRP to the chemiluminescence intensity at 15 min emitted by 100 μL of a reagent described in Example 21 containing acridan phosphate 13 triggered at room temperature. Chemiluminescence emission was initiated by addition of 10 μL of solutions of HRP containing between 1.4×10^−15 and 1.4×10^−19 moles of enzyme to 100 μL of a reagent comprising 0.055 M tris buffer, pH 8.6, 0.25 mM urea peroxide, 0.05 mM p-phenylphenol, 0.5 mM EDTA, 0.0125% Tween 20 and 3.3×10^−4 M acridan 13 in a black microplate.
FIG. 3 is a graph showing the time profile of chemiluminescence resulting from reaction of 1.4×10^−15 moles of HRP at 25° C. with 100 μL of the reagent containing acridan 5 described in Example 20.
(§1) FIG. 4 is a graph relating the amount of HRP to the maximum chemiluminescence intensity at 2 min emitted by 100 μL of a reagent containing acridan 37 triggered at room temperature. Chemiluminescence emission was initiated by addition of 10 μL of solutions of HRP containing between 1.4×10^−14 to 1.4×10^−19 moles to 100 μL of reagent composition comprising 0.01 M tris buffer, pH 8.0, 0.5 mM urea peroxide, 0.1 mM p-phenylphenol, 1 mM EDTA, 0.025% Tween 20 and 5×10^−5 M acridan 37.
FIG. 5 is a graph showing the time profile of chemiluminescence resulting from reaction of 1.4×10^−15 moles of HRP at 25° C. with 40 μL of a reagent comprising 0.01 M tris buffer, pH 8.0, 0.5 mM urea peroxide, 0.1 mM p-phenylphenol, 1 mM EDTA, 0.025% Tween 20 and 5×10^−5 M acridan 38.
as §1, with “FIG. 6” for “FIG. 4”, “at 30” for “at 2”, “acridan 39” for “acridan 37”, “between 1.4×10^−15” for “between 1.4×10^−14”, “to 1.4×10^−20” for “to 1.4×10^−19”, “acridan 39.” for “acridan 37.”
FIG. 7 is a graph showing the time profile of chemiluminescence resulting from reaction of 3.5×10^−16 moles of HRP at 25° C. with 100 μL of a reagent comprising 0.01 M tris buffer, pH 8.0, 0.5 mM urea peroxide, 0.1 mM p-phenylphenol, 1 mM EDTA, 0.025% Tween 20 and 5×10^−5 M acridan 50.
FIG. 8 is a graph relating the amount of HRP to the maximum chemiluminescence intensity at 15 min emitted by 100 μL of a reagent containing acridan 43 triggered at room temperature. Chemiluminescence emission was initiated by addition of 10 μL of solutions of HRP containing between 1.4×10^−15 to 1.4×10^−19 moles to 100 μL of a reagent composition comprising 0.055 M tris buffer, pH 8.6, 0.25 mM urea peroxide, 0.05 mM p-phenylphenol, 0.5 mM EDTA, 0.0125% Tween 20, 1 mM CTAB and 6.6×10^−4 M acridan 43.
Reagent compositions comprising 0.055 M tris buffer, pH 8.6, 0.25 mM urea peroxide, 0.05 mM p-phenylphenol, 0.5 mM EDTA, 0.0125% Tween 20, 1 mM CTAB and 3.3×10^−4 M compound 46 alone or with 50 μM DBA were tested for production of chemiluminescence by reacting a 100 μL aliquot with 3.5×10^−15 moles of HRP. […]

| Compound | production of chemiluminescence on reaction with a peroxidase and a peroxide | time to maximum chemiluminescence intensity | increase of light intensity when CTAB was included in the reaction mixture (reaction with a peroxidase and a peroxide, with vs without CTAB) |
| --- | --- | --- | --- |
| CC(=O)OC(Sc1ccccc1)=C1c2ccccc2N(C)c2ccccc21 [Compound 40] | Light production ensued upon mixing | 7 min |  |
| C/C(=C(/OP(=O)([O-])[O-])Sc1ccccc1)c1ccc2cc([O-])ccc2c1.[Na+].[Na+].[Na+] [Compound 43] |  |  | increased more than ten-fold |
| COC(Sc1ccccc1)=C1c2ccccc2N(C)c2ccccc21 [Compound 50] | Light production ensued upon mixing | 7 min |  |
| CCOP(=O)(OCC)OC(Oc1ccccc1)=C1c2ccccc2N(C)c2ccccc21 [Compound 37] | Light production ensued upon mixing |  |  |
| CC(=O)OC(Oc1ccccc1)=C1c2ccccc2N(C)c2ccccc21 [Compound 39] | Light production ensued upon mixing | 30 min |  |
| CCOP(=O)(OCC)OC(Sc1ccccc1)=C1c2ccccc2N(C)c2ccccc21 [Compound 38] | Light production ensued upon mixing | 1 min |  |
